pIC50: −log10 of the molar value.

As usually defined, the pIC50 is the IC50 on a negative log10 scale, so that one unit is a factor of ten. Read a high pIC50 as a low IC50.

One assay addresses T1, FAP Human Plasma (Homo sapiens, UniProt Q12884).
T1 construct: Plasma (anticoagulant K2EDTA) was used as the enzyme source; tissue AZ Biobank; host or cells: pooled human plasma (K2EDTA)
T1 sequence (Q12884 24-760 limits assumed): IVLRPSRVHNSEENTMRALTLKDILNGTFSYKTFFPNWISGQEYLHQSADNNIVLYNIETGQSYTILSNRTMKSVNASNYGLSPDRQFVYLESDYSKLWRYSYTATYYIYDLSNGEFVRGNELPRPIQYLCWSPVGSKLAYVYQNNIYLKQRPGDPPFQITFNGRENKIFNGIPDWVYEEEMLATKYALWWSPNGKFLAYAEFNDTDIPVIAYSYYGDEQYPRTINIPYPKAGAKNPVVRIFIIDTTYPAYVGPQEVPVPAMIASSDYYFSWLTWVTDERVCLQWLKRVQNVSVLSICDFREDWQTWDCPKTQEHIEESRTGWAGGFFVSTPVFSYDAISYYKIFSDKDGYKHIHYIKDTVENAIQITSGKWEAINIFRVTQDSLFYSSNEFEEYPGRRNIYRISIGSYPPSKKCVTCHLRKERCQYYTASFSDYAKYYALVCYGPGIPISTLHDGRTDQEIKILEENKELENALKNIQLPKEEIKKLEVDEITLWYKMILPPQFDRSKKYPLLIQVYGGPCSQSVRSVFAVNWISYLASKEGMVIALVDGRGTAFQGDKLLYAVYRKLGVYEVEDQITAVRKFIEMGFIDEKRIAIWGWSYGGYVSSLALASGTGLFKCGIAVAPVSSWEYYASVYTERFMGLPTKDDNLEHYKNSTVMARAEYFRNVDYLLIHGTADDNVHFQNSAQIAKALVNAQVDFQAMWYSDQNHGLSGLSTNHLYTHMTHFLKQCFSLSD
Kind of assay: FAP plasma inhibition assay, human plasma. The format is biochemical. The following applies: human plasma dilution 1:40, Ala-Pro-AMC 75 μM; n = 1. How it is done:
(§1) This assay was adapted from the method described in Example 89 for detection of FAP target engagement enzyme activity in plasma. Plasma (anticoagulant K2EDTA) was used as the enzyme source: Human plasma (Pooled from AZ Biobank) and Mouse plasma (AZ AST Biobank) and Cynomolgus plasma (BioIVT, #NHP00PLK2FNN, lot CYN222895). 384-Well black fluotrack PS plates (Greiner 781076) were used. 20 μL diluted plasma (Cynomolgus and Human plasma dilution 1:40, Mouse plasma dilution 1:67) in buffer (PBS, 0.1% BSA) was added to 0.6 μL compounds (in DMSO). Compounds were tested using 10 CR, 3 fold dilution series from 500 nM FAC. Two replicates for each assay point were run on the same plate. A fluorescence blank read was taken before substrate addition. Substrate, Ala-Pro-AMC (ARI-3144) stock solution (20 mM in DMSO) was diluted in buffer (PBS, 0.1% BSA) to 150 μM concentration and 20 μL added giving 75 μM FAC. Plates were incubated for 40 min at rt in the dark. The plates were read on a Beckman Paradigm® reader with excitation 360 nm and emission 465 nm. Data were analyzed in Excel (IDBS XLfit Add-In) using a one site dose response model (4-parameter logistic fit).

Assay [1] addresses T2, Prolyl endopeptidase, Prolyl Oligopeptidase (hPREP) (Homo sapiens, UniProt P48147).
T2 sequence (P48147 1-710): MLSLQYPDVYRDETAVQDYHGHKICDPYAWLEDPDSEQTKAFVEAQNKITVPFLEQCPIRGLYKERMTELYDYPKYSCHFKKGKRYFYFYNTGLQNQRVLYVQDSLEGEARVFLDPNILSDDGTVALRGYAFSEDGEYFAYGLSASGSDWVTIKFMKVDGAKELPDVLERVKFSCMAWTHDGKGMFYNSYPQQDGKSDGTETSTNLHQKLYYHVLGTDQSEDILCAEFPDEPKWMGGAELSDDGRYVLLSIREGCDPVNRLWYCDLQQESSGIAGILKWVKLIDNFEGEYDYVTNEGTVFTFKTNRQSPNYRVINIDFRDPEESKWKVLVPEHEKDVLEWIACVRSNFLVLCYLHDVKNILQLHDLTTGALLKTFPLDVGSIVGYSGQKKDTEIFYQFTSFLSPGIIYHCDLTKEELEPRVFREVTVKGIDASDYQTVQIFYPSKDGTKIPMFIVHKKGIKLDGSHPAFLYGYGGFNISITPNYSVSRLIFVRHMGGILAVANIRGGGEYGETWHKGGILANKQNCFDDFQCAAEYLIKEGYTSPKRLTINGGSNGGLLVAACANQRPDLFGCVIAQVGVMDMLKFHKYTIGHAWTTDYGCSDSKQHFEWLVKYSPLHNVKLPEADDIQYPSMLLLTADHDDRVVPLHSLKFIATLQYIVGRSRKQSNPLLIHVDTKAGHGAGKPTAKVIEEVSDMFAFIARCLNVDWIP
The experiment in a line: biochemical.

The next assay has as its target T3, FAP Mouse Plasma (Mus musculus, UniProt P97321).
T3 construct: Plasma (anticoagulant K2EDTA) was used as the enzyme source; tissue AZ AST Biobank; host or cells: mouse plasma (K2EDTA)
T3 sequence (P97321 24-761 limits assumed): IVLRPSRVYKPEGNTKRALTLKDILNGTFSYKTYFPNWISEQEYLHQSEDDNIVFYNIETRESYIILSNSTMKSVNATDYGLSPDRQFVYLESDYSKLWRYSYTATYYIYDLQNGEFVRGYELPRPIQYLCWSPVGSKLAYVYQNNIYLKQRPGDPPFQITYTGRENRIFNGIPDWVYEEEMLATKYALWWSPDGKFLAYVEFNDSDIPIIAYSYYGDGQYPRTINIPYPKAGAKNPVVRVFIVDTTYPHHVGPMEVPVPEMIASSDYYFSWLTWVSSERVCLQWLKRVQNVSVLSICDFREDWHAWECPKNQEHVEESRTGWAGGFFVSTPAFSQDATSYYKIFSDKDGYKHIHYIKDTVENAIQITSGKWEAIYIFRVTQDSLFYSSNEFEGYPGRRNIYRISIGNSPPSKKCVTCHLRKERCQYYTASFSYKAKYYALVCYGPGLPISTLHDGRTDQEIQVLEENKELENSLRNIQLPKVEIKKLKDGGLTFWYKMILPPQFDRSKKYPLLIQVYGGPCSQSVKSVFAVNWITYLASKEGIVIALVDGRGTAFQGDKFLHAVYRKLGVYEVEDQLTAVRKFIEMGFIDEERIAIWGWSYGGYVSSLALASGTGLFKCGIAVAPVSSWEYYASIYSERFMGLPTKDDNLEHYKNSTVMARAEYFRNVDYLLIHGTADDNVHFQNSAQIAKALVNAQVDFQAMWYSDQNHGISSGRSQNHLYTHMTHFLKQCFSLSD
The experiment in a line: FAP plasma inhibition assay, mouse plasma. The format is biochemical. The following applies: mouse plasma dilution 1:67, Ala-Pro-AMC 75 μM; n = 1. How it is done: as §1

On to `N#C[C@@H]1CSCN1C(=O)CNC(=O)c1ccnc2ccc(C3CCCCO3)cc12` (mixture of isomers) [Example 32, N-(2-((R)-4-Cyanothiazolidin-3-yl)-2-oxoethyl)-6-((RS)-tetrahydro-2H-pyran-2-yl)quinoline-4-carboxamide], for which the results for the pIC50 (at FAP Human Plasma; in assay [1]; on FAP Mouse Plasma) were 9.30, 6.04 and 9.00, respectively.
On the same counts, the results for `CO[C@H]1CC[C@H](c2ccc3nccc(C(=O)NCC(=O)N4CSC[C@H]4C#N)c3c2)CC1` (single isomer, unassigned) [Example 78, N-(2-((R)-4-Cyanothiazolidin-3-yl)-2-oxoethyl)-6-((1r,4R*)-4-methoxycyclohexyl)quinoline-4-carboxamide] are 10.00, 6.00 and 9.70.
On the same counts, the results for `CC(C)(F)COc1ccc2nccc(C(=O)NCC(=O)N3CSC[C@H]3C#N)c2c1` [Example 3, (R)—N-(2-(4-Cyanothiazolidin-3-yl)-2-oxoethyl)-6-(2-fluoro-2-methylpropoxy)quinoline-4-carboxamide] are 9.52, 6.02 and 9.30.
For `N#C[C@@H]1CSCN1C(=O)CNC(=O)c1ccnc2ccc(C3(O)CCOCC3)cc12` [Example 15, (R)—N-(2-(4-Cyanothiazolidin-3-yl)-2-oxoethyl)-6-(4-hydroxy-tetrahydro-2H-pyran-4-yl)quinoline-4-carboxamide], the pIC50 is 9.52 against FAP Human Plasma, 5.96 in assay [1] and 9.30 on FAP Mouse Plasma.
On the same counts, the results for `CC(C)(O)c1ccc2nccc(C(=O)NCC(=O)N3CSC[C@H]3C#N)c2c1` [Example 16, (R)—N-(2-(4-Cyanothiazolidin-3-yl)-2-oxoethyl)-6-(2-hydroxypropan-2-yl)quinoline-4-carboxamide] are 9.05, 6.19 and 9.05.
`COC(C)(C)c1ccc2nccc(C(=O)NCC(=O)N3CSC[C@H]3C#N)c2c1` [Example 18, (R)—N-(2-(4-Cyanothiazolidin-3-yl)-2-oxoethyl)-6-(2-methoxypropan-2-yl)quinoline-4-carboxamide]: the pIC50 is 8.82 against FAP Human Plasma, 6.07 in assay [1] and 8.68 at FAP Mouse Plasma.
For the compound `N#C[C@@H]1CSCN1C(=O)CNC(=O)c1ccnc2ccc(C3CCOCC3)cc12` [Example 20, (R)—N-(2-(4-Cyanothiazolidin-3-yl)-2-oxoethyl)-6-(tetrahydro-2H-pyran-4-yl)quinoline-4-carboxamide], the pIC50 on FAP Human Plasma was 9.52; in assay [1], 6.00; against FAP Mouse Plasma it was 9.30.
For `CCOC1(c2ccc3nccc(C(=O)NCC(=O)N4CSC[C@H]4C#N)c3c2)CCOCC1` [Example 23, (R)—N-(2-(4-Cyanothiazolidin-3-yl)-2-oxoethyl)-6-(4-ethoxytetrahydro-2H-pyran-4-yl)quinoline-4-carboxamide], the results for the pIC50 (on FAP Human Plasma; in assay [1]; at FAP Mouse Plasma) were 9.30, 5.96 and 9.15, respectively.
`N#C[C@@H]1CSCN1C(=O)CNC(=O)c1ccnc2ccc(C3(C#N)CC3)cc12` [Example 70, (R)-6-(1-Cyanocyclopropyl)-N-(2-(4-cyanothiazolidin-3-yl)-2-oxoethyl)quinoline-4-carboxamide]: the values for the pIC50 (against FAP Human Plasma; in assay [1]; at FAP Mouse Plasma) were 9.15, 6.92 and 9.15, respectively.

These data come from patent US20260070899A1, “N-(2-(4-CYANOTHIAZOLIDIN-3-YL)-2-OXOETHYL)-QUINOLINE-4-CARBOXAMIDES” (AstraZeneca AB, priority 2022, published 2026).
